In patent publication US10876058B2, “Method for prevention of biodeterioration of fuels” (priority 2013, dated 2020):
Residues, ends and D or L forms follow the SMILES beside them. No end group written: not given here. *: point of attachment. βNA = c1ccc2cc(N*)ccc2c1

Key:
[1] = tested on: environmental bacteria (Pseudomonas, Acinetobacter, Marinobacter, and Dietzia); experiment: Efflux pump blocker growth inhibition in 1:1 fuel-minimal media mixtures; format: cell-based; conditions: for bacterial growth inhibition: fuel present (FIGS. 8 and 10)
Experimental: (§1) C-capped dipeptide efflux pump blocker, Phe-Arg β-naphthylamide dihydrochloride (MC-207,110) (Sigma Aldrich) was added to the fuel phase and the aqueous (minimal media M9, Bushnell-Haas, or water) phase of 1:1 fuel-minimal media mixtures containing environmental bacteria (Pseudomonas, Acinetobacter, Marinobacter, and Dietzia) at concentrations ranging from 1 to 1×10^9 cells/mL. Phe-Arg β-naphthylamide dihydrochloride was added to the fuel at concentrations of 0 μg/mL, 20 μg/mL, 40 μg/mL, 60 μg/mL, 80 μg/mL, and 100 μg/mL. Control experiments were performed by adding 0 μg/mL to 120 μg/mL of Phe-Arg β-naphthylamide to minimal media containing bacteria and glycerol as the energy source, but not fuel.
(§2) The antimicrobial effect of the efflux pump blocker was established daily by measuring growth through absorbance readings (OD600), DNA quantitation through qPCR, and colony counting techniques.

Pseudomonas aeruginosa = experiment: Efflux pump blocker growth inhibition, Pseudomonas aeruginosa (FIG. 10); format: cell-based; conditions: fuel present (FIG. 10)
Experimental: as §1, §2

Acinetobacter venetianus = experiment: Efflux pump blocker growth inhibition, Acinetobacter venetianus (FIG. 10); format: cell-based; conditions: fuel present (FIG. 10)
Experimental: as §1, §2

[2] = tested on: microbial growth in the aqueous phase; experiment: Treatment solution administered to jet fuel, microbial growth in the aqueous phase (FIG. 12); format: cell-based; conditions: 80 μg/mL final in jet fuel; stock 25 mg/mL in absolute ethanol, DiEGME or water; initial and days one to three (FIG. 12)
Experimental: Treatment solutions were prepared, as described above, with 25 mg/mL efflux pump inhibitor in various solvents, including absolute ethanol, DiEGME, and water. The treatment solutions were administrated to jet fuel at a final concentration in fuel of 0 μg/mL, 40 μg/mL, and 80 μg/mL. FIG. 12 illustrates results of the 80 μg/mL treatment on initial measured microbial growth in the aqueous phase as well as microbial growth after one, two, and three days.

[3] = Stability in the presence of fuel; format: physicochemical; conditions: activity was preserved
Excerpt: Additional experimental results (see FIG. 10) confirm that the growth inhibition effect and the inactivity of efflux pump were effective for other bacteria, including Pseudomonas aeruginosa and Acinetobacter venetianus. The c-capped dipeptides were stable in the presence of fuel and activity was preserved.

[4] = tested on: environmental bacteria (E. coli, Bacillus, and Pseudomonas); experiment: Antimicrobial peptide growth inhibition in 1:1 fuel-growth media mixtures; format: cell-based; conditions: for bacteria growth after addition to fuel: added to fuel (aqueous and fuel phase)
Experimental: (§3) Protegrin-1 and Magainin-2 antimicrobial peptides were added individually to the fuel phase and the aqueous (minimal media M9, Bushnell-Haas, or water) phase of 1:1 fuel-growth media mixtures containing environmental bacteria (E. coli, Bacillus, and Pseudomonas) at concentrations ranging from 1 to 1×10^9 cells/mL. Magainin 1 and 2 were obtained from Sigma-Aldrich (St. Louis, Mo.). Protegrin-1 was obtained from AnaSpec (Fremont, Calif.) or produced from a transgenic construct containing a fusion between green fluorescent protein (“GFP”) and the Protegrin-1 coding gene. The GFP-Protegrin fusion was purified by affinity chromatography and Protegrin cleaved from the fusion for use, as pure, or as a fusion in the bioassays.
(§4) The antimicrobial peptides were added at the following concentrations: 0 μg/mL, 1 μg/mL, 2.5 μg/mL, 5 μg/mL, 10 μg/mL, 20 μg/mL, 50 μg/mL, 75 μg/mL, 100 μg/mL, and 125 μg/mL in the presence and absence of fuel. Experiments using minimal media with bacteria in the presence of fuel were designed to measure the effect of fuel in combination with the antimicrobial peptide control. Control experiments contained glycerol instead of fuel as the energy source.
(§5) The antimicrobial effect of the peptides was measured every 24 hours for four days after inoculation by measuring growth through absorbance readings (OD600), DNA quantitation through qPCR, and colony counting techniques.

[5] = Partition from fuel into the aqueous phase; format: physicochemical; conditions: added to fuel (aqueous and fuel phase)
E. coli = experiment: Antimicrobial peptide growth inhibition, E. coli (FIG. 6); format: cell-based; conditions: absence of fuel
Experimental: as §3, §4, §5

Pseudomonas = experiment: Antimicrobial peptide growth inhibition, Pseudomonas (FIG. 7); format: cell-based; conditions: absence of fuel
Experimental: as §3, §4, §5

Compound | bacterial growth inhibition ([1]; 20 μg/mL) | bacterial growth inhibition ([1]; 40 μg/mL) | bacterial growth inhibition ([1]; 60 μg/mL) | bacterial growth inhibition ([1]; 80 μg/mL) | bacterial growth inhibition ([1]; 100 μg/mL) | inhibitory effect on bacterial growth ([1]; fuel not present (glycerol control), concentrations as high as 100 μg/mL (FIG. 9)) | concentration giving complete growth inhibition for up to 17 days ([1]; fuel present, up to 17 days (FIG. 11)) | microbial growth and proliferation under periodic administration ([1]; low concentration (less than 20 μg/mL) every 3 to 4 days) | growth inhibition effect and inactivity of efflux pump (Pseudomonas aeruginosa) | growth inhibition effect and inactivity of efflux pump (Acinetobacter venetianus) | microbial growth in the aqueous phase [2] | stability in the presence of fuel [3] | concentration required to completely inhibit bacteria growth ([4]; absence of fuel (FIG. 4)) | bacteria growth after addition to fuel [4] | partition between fuel and aqueous phase [5] | concentration that prevented microbial growth ([4]; peptide added directly to the fuel phase) | concentration required to completely inhibit growth (E. coli) | concentration required to completely inhibit growth (Pseudomonas)
Cl.Cl.N=C(N)NCCC[C@H](NC(=O)[C@@H](N)Cc1ccccc1)C(=O)Nc1ccc2ccccc2c1 [c-capped dipeptide, Phe-Arg β-naphthylamide dihydrochloride] (H-Phe-Arg-βNA) | Partial bacterial growth inhibition | complete growth inhibition | complete growth inhibition | complete growth inhibition | complete growth inhibition | not observed | greater than 80 μg/mL | prevented microbial growth and proliferation | effective | effective | significantly decreased microbial growth | stable | – | – | – | – | – | –
Magainin-2 | – | – | – | – | – | – | – | – | – | – | – | – | 125 µg/mL | inhibited bacteria growth | partitioned into the aqueous phase | – | – | –
Protegrin-1 (RGGRLCYCRRRFCVCVGR; ends and bridges not checked; cysteine pairing not given here; UniProt P32194 131-148, looked up) [18 amino acid cysteine-rich β-sheet antimicrobial peptide; from AnaSpec or cleaved from a GFP-Protegrin fusion] | – | – | – | – | – | – | – | – | – | – | – | – | – | inhibited bacteria growth | partitioned into the aqueous phase | less than or equal to 1 μg/mL | 5 µg/mL | 5 µg/mL
